Data taken from patent publication US8691828B2, “Thienopyrimidine as CDC7 kinase inhibitors” (Takeda Pharmaceutical Company Limited, priority 2009, dated 2014).

Assays:
[1] = tested on: Colo205 cells; test: Determination of cell proliferation inhibitory activity (Cell Titer-Glo Luminescent Cell Viability Assay); assay type: cell-based; conditions: Homo sapiens, COLO 205, 72 h, test compound 1 μM, incubation for 3 days, cellular ATP content, read-out: Inhibitory rate (%) at 1 μM
Procedure: Cell proliferation was measured by using Cell Titer-Glo Luminescent Cell Viability Assay (Promega, Wis., USA,). The CellTiter-Glo Luminescent Cell Viability Assay is a homogeneous method of determining the number of viable cells in culture based on quantitation of the ATP present, which signals the presence of metabolically active cells. Colo205 cells (American Type Culture Collection) were sown at 3.0×10^3 cells/well to a 96 well microplate and cultured in an incubator (37° C., 5% carbon dioxide). On the following day, 100 μl of a solution of each test compound, which was previously diluted, was added. According to the instruction manual from vender, cellular ATP content of final treatment day was measured. After incubation for 3 days, solution of Cell Titer-Glo Luminescent Cell Viability Assay was added to each well and incubated for approximately 15 min at room temperature. Luminescence of each well was measured by ARVO Light (PerkinElmer Inc., MA, USA). Taking as 100% the ATP content for the none compound treatment control group, the ratio of the residual ATP content for each treatment group was determined.

[2] = biological target: T1, cdc7/Dbf4 (Homo sapiens, UniProt O00311); test: Determination of cdc7 kinase inhibitory activity (HTRF Transcreener ADP assay); assay type: biochemical; conditions: test compound 1 μM; 1.0 μM ATP, 10 μg/ml MCM2, 0.1 μg/ml cdc7/Dbf4, 90 min at room temperature; read-out: Inhibitory rate (%) at 1 μM
T1 construct: Full-length cdc7 co-expressed with full-length Dbf4; purchased Carna Bioscience, Inc. (Kobe, Japan)
Procedure: Full-length cdc7 co-expressed with full-length Dbf4 was purchased from Carna Bioscience, Inc. (Kobe, Japan). Homogeneous time-resolved fluorescence (HTRF) Transcreener ADP assay (Cisbio Inc., MA., U.S.A.) was used for detecting cdc7/Dbf4 kinase activity. Reactions were performed in kinase buffer (20 mM HEPES, pH 7.5, 10 mM magnesium acetate, 1 mM dithiothreitol) containing 1.0 μM ATP, 10 μg/ml MCM2, 0.1 μg/ml cdc7/Dbf4 for 90 min at room temperature. Free ADP from the ATP hydrolysis reaction was detected by the monoclonal ADP antibody labeled with Eu^3+-Cryptate, which competes with both native ADP and d2-coupled ADP. The TR-FRET signal was detected by EnVision (PerkinElmer Inc., MA, U.S.A.). Cdc7 kinase inhibitory rate (%) of the test compound was calculated by the following formula: Inhibitory rate(%)=(1−(count of test compound−blank)÷(control−blank))×100
The count of the solution reacted without addition of the compound was used as a “control”, and the count of the solution without the compound and cdc7/Dbf4 was used as a “blank”.

T1 sequence (O00311 whole entry): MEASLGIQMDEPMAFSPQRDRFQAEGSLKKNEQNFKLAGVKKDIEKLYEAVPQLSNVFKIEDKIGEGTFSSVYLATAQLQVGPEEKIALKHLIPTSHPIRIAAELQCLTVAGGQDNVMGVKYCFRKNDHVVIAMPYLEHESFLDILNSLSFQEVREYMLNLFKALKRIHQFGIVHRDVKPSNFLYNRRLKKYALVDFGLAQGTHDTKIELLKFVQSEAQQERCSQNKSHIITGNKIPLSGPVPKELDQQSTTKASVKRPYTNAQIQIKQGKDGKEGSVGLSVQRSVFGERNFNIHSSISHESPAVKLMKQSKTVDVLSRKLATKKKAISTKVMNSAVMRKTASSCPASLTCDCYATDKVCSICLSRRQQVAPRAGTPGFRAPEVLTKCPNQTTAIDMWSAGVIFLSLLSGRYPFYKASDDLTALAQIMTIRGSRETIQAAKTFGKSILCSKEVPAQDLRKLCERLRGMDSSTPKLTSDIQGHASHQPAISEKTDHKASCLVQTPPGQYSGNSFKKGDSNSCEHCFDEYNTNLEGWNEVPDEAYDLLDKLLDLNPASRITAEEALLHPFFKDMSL
T1 sequence (Q9UBU7 whole entry partner): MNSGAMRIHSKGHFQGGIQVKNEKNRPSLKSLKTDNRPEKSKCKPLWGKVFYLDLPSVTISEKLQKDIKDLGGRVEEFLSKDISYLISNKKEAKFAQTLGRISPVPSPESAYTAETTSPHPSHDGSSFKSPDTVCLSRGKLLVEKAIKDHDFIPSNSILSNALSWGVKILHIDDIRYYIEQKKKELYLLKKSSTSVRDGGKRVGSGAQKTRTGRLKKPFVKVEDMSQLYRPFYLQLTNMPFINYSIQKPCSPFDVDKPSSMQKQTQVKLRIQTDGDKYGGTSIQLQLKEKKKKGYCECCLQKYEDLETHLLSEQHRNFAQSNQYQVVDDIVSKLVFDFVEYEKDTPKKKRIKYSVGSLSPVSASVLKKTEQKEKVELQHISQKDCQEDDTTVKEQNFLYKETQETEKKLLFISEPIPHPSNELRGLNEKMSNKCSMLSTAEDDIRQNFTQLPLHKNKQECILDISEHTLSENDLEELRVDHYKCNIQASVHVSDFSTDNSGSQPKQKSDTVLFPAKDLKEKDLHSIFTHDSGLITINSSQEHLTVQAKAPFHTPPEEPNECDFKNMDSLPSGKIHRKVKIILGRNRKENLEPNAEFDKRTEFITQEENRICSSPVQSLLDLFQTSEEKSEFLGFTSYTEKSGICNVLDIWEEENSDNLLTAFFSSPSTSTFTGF

Row | inhibition at 1 µM [2] | SMILES | inhibition at 1 µM [1]
1 | 101% | Cc1[nH]ncc1-c1cc2c(s1)C(=O)NC(C)(CC(F)(F)F)N2C (stereo not shown) [Example 104, 1,2-dimethyl-6-(5-methyl-1H-pyrazol-4-yl)-2-(2,2,2-trifluoroethyl)-2,3-dihydrothieno[3,2-d]pyrimidin-4(1H)-one] | 62.9%
2 | 104% | CC1(C)NC(=O)c2sc(-c3cn[nH]c3)cc2N1 [Example 34, 2,2-dimethyl-6-(1H-pyrazol-4-yl)-2,3-dihydrothieno[3,2-d]pyrimidin-4(1H)-one] | –
3 | 91.8% | Cc1[nH]ncc1-c1cc2c(s1)C(=O)NC1(CCCCC1F)N2 (stereo not shown) [Example 122, 2-fluoro-6′-(5-methyl-1H-pyrazol-4-yl)-1′H-spiro [cyclohexane-1,2′-thieno[3,2-d]pyrimidin]-4′(3′H)-one] | 48.9%

Further lines, the compound ahead of its results:

Row | SMILES | inhibition at 1 µM [2] | inhibition at 1 µM [1]
4 | Cc1[nH]ncc1-c1cc2c(s1)C(=O)NC(C)(C)N2CC(F)F [Example 115, 1-(2,2-difluoroethyl)-2,2-dimethyl-6-(5-methyl-1H-pyrazol-4-yl)-2,3-dihydrothieno[3,2-d]pyrimidin-4(1H)-one] | – | 66.1%
5 | O=C1NC2(CCN(C(=O)OCc3ccccc3)CC2)Nc2cc(-c3ccncc3)sc21 [Example 9, benzyl 4′-oxo-6′-(pyridin-4-yl)-3′,4′-dihydro-1′H-spiro[piperidine-4,2′-thieno[3,2-d]pyrimidine]-1-carboxylate] | 103% | –
6 | CCN1c2cc(-c3ccncc3)sc2C(=O)NC12CCCC2 [Example 27, 1′-ethyl-6′-(pyridin-4-yl)-1′H-spiro [cyclopentane-1,2′-thieno[3,2-d]pyrimidin]-4′(3′H)-one] | 101% | 59.6%
7 | CCN1c2cc(-c3cn[nH]c3C)sc2C(=O)NC1(C)C [Example 114, 1-ethyl-2,2-dimethyl-6-(5-methyl-1H-pyrazol-4-yl)-2,3-dihydrothieno[3,2-d]pyrimidin-4(1H)-one] | – | 67.4%
8 | CC1(CC(F)(F)F)NC(=O)c2sc(-c3ccncc3)cc2N1 (stereo not shown) [Example 22, 2-methyl-6-(pyridin-4-yl)-2-(2,2,2-trifluoroethyl)-2,3-dihydrothieno[3,2-d]pyrimidin-4(1H)-one] | 97.1% | –
9 | CCN1c2cc(-c3ccncc3)sc2C(=O)NC1(C)C [Example 15, 1-ethyl-2,2-dimethyl-6-(pyridin-4-yl)-2,3-dihydrothieno[3,2-d]pyrimidin-4(1H)-one] | 97.6% | –
10 | O=C1NC2(CCCCC2)Nc2cc(-c3ccncc3)sc21 [Example 6, 6′-(pyridin-4-yl)-1′H-spiro[cyclohexane-1,2′-thieno[3,2-d]pyrimidin]-4′(3′H)-one] | 98.5% | –
